Assay results taken from article PMC6270012, “Inhibitory Evaluation of Sulfonamide Chalcones on β-Secretase and Acylcholinesterase” (Molecules, 2012).
“Also recorded” adds a separate entry of the source. Read-outs that look alike come from different tables or passages of the source.

Legend:
Type in all cases: biochemical
BACE1 [1] = target: T1, BACE1 (Homo sapiens, UniProt P56817); experiment: BACE1 FRET peptide cleavage assay; settings: for Inhibition type: Lineweaver-Burk and Dixon plots
T1 construct: purchased RD System, Inc. (WI, USA)
Method: In this assay, BACE1-catalyzed proteolysis of a synthetic oligopeptide substituted with a fluorescent dye and a quencher leads to an increase in fluorescence by breaking the tether between the dye and the quencher. […] The assay was carried out according to the supplied manual with small modifications.
The assay was carried out according to the supplied manual with modifications. Briefly, a mixture of 10 μL of assay buffer (50 mM sodium acetate, pH 4.5), 10 μL of BACE1 (1.0 U/mL), 10 μL of the substrate (750 nM Rh-[…]-Quencher in 50 mM sodium acetate, pH 4.5), and 10 μL of sample dissolved in 50 mM ammonium bicarbonate buffer (pH 7.8) was incubated for 60 min at room temperature in the dark. The mixture was irradiated at 545 nm and the emission intensity at 590 nm was recorded. The inhibition ratio was obtained by the following equation: Inhibition (%) = [1 − {(S−S0)/(C−C0)}] × 100 where C was the fluorescence of the control (enzyme, buffer, and substrate) after 60 min of incubation, C0 was the fluorescence of control at zero time, S was the fluorescence of the tested samples (enzyme, sample solution, and substrate) after incubation, and S0 was the fluorescence of the tested samples at zero time. To allow for the quenching effect of the samples, the sample solution was added to the reaction mixture C, and any reduction in fluorescence by the sample was then investigated. All data are the mean of three experiments.

human erythrocyte AChE = target: T2, human erythrocyte AChE (Homo sapiens, UniProt P22303); experiment: Cholinesterase inhibitory activity (Ellman), AChE; settings: for IC50: read-out: IC50 erythrocytes AChE; for Ki: read-out: Ki (inhibition constant) AChE
T2 construct: 2 μL of human erythrocyte AChE (0.25 U/mL); from tissue; host or cells: human erythrocytes
Method: (§1) Cholinesterase was assayed according to standard procedures by following the hydrolysis of acetylthiocholine iodide (AtCh) or butyrylthiocholine iodide (BtCh) by monitoring formation of 5-thio-2-nitrobenzoate from 5-5'-dithiobis(2-nitrobenzoic acid) spectrometrically at 412 nm. The reaction mixture contained 100 mM sodium phosphate buffer (pH 8.0), 20 μL of test sample solution and either 2 μL of human erythrocyte AChE (0.25 U/mL) or 2 μL of equine serum BChE (0.05 U/mL) solution, which were mixed and incubated for 10 min at room temperature. Assays were then initiated with the addition of 30 μL 5-5'-dithiobis(2-nitrobenzoic acid) (3.3 mM) and, respectively, 20 μL of AtCh (1 mM), and 7 μL of BtCh (1 mM). All assays were performed in triplicate. […] Kinetic parameters were determined using the Lineweaver-Burk double-reciprocal-plot method at increasing concentration of substrates and inhibitors.

equine serum BChE = target: T3, equine serum BChE (Equus caballus, UniProt P81908); experiment: Cholinesterase inhibitory activity (Ellman), BChE; settings: for Ki: read-out: Ki (inhibition constant) BChE
T3 construct: 2 μL of equine serum BChE (0.05 U/mL) solution; from tissue; host or cells: equine serum
Method: as §1

BACE1 [2] = target: T1, BACE1; experiment: Slow and time-dependent inhibitory activity on BACE1 (progress curves); settings: preincubation 0-60 min, progress curves 3,600 s
Method: To further investigate the inhibition mechanism, time dependence of BACE1inhibition by compound 5a was subsequently probed. The enzyme was preincubated with […] (between 0 and 60 min) and the residual enzyme activity was measured by calculating the initial velocity (Vi) of the hydrolysis (Figure 3B). Progress curves were continued to be run up for 3,600 s.
Slow and time-dependent assays and progress curves were carried out using 1 U/mL unit BACE1, and 10 μL substrate in 50 mM ammonium bicarbonate pH 7.8 at 37 °C. Enzyme activities were measured continuously for 3,600 s spectrophotometrically. To determine the kinetic parameters associated with time dependent inhibition of BACE1, progress curves for 3,600 s were obtained at one inhibitor concentration using fixed substrate concentrations. The data were analyzed using the nonlinear regression program [Sigma Plot (SPCC Inc., Chicago, IL, USA)].

[3] = BACE1, Dixon plot, read-out: Ki (inhibition constant)
[4] = BACE1 activity, mean of three experiments ± SD

T1 sequence (P56817 46-501): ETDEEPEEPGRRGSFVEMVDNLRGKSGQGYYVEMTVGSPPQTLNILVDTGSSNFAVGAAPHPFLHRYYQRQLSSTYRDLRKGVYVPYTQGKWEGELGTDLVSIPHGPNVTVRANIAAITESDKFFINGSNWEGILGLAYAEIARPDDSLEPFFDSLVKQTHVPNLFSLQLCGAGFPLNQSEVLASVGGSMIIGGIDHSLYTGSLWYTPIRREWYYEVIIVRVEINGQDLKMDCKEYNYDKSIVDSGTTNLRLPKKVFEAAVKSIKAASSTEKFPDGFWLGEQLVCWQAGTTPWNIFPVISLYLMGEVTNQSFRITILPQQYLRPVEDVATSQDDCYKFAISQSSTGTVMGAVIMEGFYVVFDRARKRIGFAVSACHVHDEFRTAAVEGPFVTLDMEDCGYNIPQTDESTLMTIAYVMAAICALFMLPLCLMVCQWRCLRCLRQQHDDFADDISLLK
T2 sequence (P22303 other isoform, or with tags, fused parts or gaps): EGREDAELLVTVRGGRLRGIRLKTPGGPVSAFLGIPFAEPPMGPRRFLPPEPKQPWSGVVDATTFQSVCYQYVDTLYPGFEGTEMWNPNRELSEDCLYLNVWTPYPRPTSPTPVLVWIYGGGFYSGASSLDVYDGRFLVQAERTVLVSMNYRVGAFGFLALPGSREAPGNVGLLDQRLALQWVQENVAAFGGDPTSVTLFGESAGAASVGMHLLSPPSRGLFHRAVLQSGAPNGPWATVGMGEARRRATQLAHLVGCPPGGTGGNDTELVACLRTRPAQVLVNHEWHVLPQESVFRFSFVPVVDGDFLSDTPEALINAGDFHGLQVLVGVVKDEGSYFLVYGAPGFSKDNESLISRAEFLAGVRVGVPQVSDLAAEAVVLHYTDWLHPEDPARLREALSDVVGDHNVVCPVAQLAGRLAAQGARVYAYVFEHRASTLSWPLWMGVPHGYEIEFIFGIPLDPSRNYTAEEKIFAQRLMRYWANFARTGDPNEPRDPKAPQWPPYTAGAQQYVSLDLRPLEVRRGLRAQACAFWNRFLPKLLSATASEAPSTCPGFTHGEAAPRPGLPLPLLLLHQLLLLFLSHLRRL
T3 sequence (P81908 whole entry): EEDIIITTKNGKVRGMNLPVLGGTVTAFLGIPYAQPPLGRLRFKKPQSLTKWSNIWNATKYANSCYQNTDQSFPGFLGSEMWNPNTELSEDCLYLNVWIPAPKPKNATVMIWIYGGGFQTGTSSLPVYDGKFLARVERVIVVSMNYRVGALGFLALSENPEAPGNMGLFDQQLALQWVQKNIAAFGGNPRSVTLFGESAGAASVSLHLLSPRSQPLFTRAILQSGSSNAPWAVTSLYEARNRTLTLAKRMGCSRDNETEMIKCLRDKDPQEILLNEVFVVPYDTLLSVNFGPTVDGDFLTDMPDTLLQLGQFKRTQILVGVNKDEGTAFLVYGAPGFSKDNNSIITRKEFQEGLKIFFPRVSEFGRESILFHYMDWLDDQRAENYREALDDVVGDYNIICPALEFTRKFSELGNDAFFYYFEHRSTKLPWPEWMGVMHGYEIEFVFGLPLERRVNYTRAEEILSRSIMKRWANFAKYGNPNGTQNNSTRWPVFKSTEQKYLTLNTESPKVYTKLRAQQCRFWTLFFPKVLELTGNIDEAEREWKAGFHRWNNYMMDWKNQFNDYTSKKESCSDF

| Structure (SMILES) | Ki (BACE1 [1]; [3]) | IC50 (BACE1 [1]; [4]) | IC50 (human erythrocyte AChE) | Ki (human erythrocyte AChE) | IC50 (equine serum BChE) | Ki (equine serum BChE) | also measured |
| --- | --- | --- | --- | --- | --- | --- | --- |
| Nc1ccc(C(=O)/C=C/c2ccc(O)cc2)cc1 [Compound 1, 4′-Amino-4-hydroxychalcone] | 43.8 µM | 48.2 ± 1.2 µM | – | – | – | – | – |
| Nc1ccc(C(=O)/C=C/c2ccc(O)c(O)c2)cc1 [Compound 2, 4′-Amino-3,4-dihydroxychalcone] | 10.5 µM | 17.7 ± 0.8 µM | – | – | – | – | – |
| CC(=O)Nc1ccc(C(=O)/C=C/c2ccc(O)cc2)cc1 [Compound 3, 4′-Acetamido-4-hydroxychalcone] | – | > 200 µM | – | – | – | – | BACE1 inhibition (BACE1 [1]; at concentrations as high as 200 μM): inactive |
| Cc1ccc(S(=O)(=O)Nc2ccc(C(=O)/C=C/c3ccc(O)cc3)cc2)cc1 [Compound 4a, 4'-(4-Toluenesulfonamide)-4-hydroxychalcone] | 0.56 µM | 1.44 ± 0.2 µM | 56.1 µM | 40.4 µM | 47.4 µM | 25.3 µM | Inhibition type (BACE1 [1]; BACE1): mixed type |
| Cc1ccc(S(=O)(=O)Nc2ccc(C(=O)/C=C/c3ccccc3)cc2)cc1 [Compound 4b, 4′-(4-Toluenesulfonamido)-chalcone] | – | 169 ± 2.4 µM | – | – | – | – | – |
| O=C(/C=C/c1ccc(O)cc1)c1ccc(NS(=O)(=O)c2ccccc2)cc1 [Compound 4c, 4′-(Benzenesulfonamide)-4-hydroxychalcone] | 5.83 µM | 6.28 ± 0.7 µM | 83.3 µM | 80.3 µM | 75 µM | 72.2 µM | – |
| O=C(/C=C/c1ccc(O)cc1)c1ccc(NS(=O)(=O)c2ccc(O)cc2)cc1 [Compound 4d, 4′-(4-Hydroxybenzenesulfonamide)-4-hydroxychalcone] | 1.49 µM | 2.88 ± 0.5 µM | – | – | – | – | – |
| COc1ccc(S(=O)(=O)Nc2ccc(C(=O)/C=C/c3ccc(O)cc3)cc2)cc1 [Compound 4e, 4′-(4-Methoxybenzenesulfonamido)-4-hydroxychalcone] | 75.2 µM | 79.3 ± 2.3 µM | – | – | – | – | – |
| Nc1ccc(S(=O)(=O)Nc2ccc(C(=O)/C=C/c3ccc(O)cc3)cc2)cc1 [Compound 4f, 4′-(4-Aminobenzenesulfonamide)-4-hydroxychalcone] | 4.19 µM | 5.58 ± 1.4 µM | 95.8 µM | 61.5 µM | 34.3 µM | 19 µM | – |
| O=C(/C=C/c1ccc(O)cc1)c1ccc(NS(=O)(=O)c2ccc([N+](=O)[O-])cc2)cc1 [Compound 4g, 4′-(4-Nitrobenzenesulfonamide)-4-hydroxychalcone] | 94.8 µM | 107 ± 2.7 µM | – | – | – | – | – |
| O=C(/C=C/c1ccc(O)cc1)c1ccc(NS(=O)(=O)c2ccc(F)cc2)cc1 [Compound 4h, 4′-(4-Fluorobenzenesulfonamide)-4-hydroxychalcone] | – | 120 ± 3.2 µM | – | – | – | – | – |
| Cc1ccc(S(=O)(=O)Nc2ccc(C(=O)/C=C/c3ccc(O)c(O)c3)cc2)cc1 [Compound 5a, 4'-(4-Toluenesulfonamide)-3,4-dihydroxychalcone] | – | 0.21 ± 0.02 µM | 75.9 µM | 55.8 µM | 19.5 µM | 9.8 µM | Time dependence of inhibition (BACE1 [2]): slow binding inhibitor; also recorded: time-dependent; Inhibition type (BACE1 [1]; BACE1): mixed inhibitor; Ki (BACE1 [1]; BACE1, read-out: Ki): 0.07 µM; Reversibility of inhibition (BACE1 [1]; BACE1, residual activity versus enzyme concentration): reversible inhibitor |
| O=C(/C=C/c1ccc(O)c(O)c1)c1ccc(NS(=O)(=O)c2ccccc2)cc1 [Compound 5b, 4′-(Benzenesulfonamide)-3,4-dihydroxychalcone] | 3.78 µM | 4.59 ± 1.5 µM | 75.4 µM | 57.2 µM | 79 µM | 63.5 µM | – |
| O=C(/C=C/c1ccc(O)c(O)c1)c1ccc(NS(=O)(=O)c2ccc(O)cc2)cc1 [Compound 5c, 4′-(4-Hydroxybenzenesulfonamide)-3,4-hydroxychalcone] | 0.56 µM | 0.62 ± 0.03 µM | 57.4 µM | 47.6 µM | 24.7 µM | 26.6 µM | – |
| Nc1ccc(S(=O)(=O)Nc2ccc(C(=O)/C=C/c3ccc(O)c(O)c3)cc2)cc1 [Compound 5d, 4′-(4-Aminobenzenesulfonamide)-3,4-dihydroxychalcone] | 0.69 µM | 0.69 ± 0.04 µM | – | – | – | – | – |
| O=C(/C=C/c1ccc(O)c(O)c1)c1ccc(NS(=O)(=O)c2ccc([N+](=O)[O-])cc2)cc1 [Compound 5e, 4′-(4-Nitrobenzenesulfonamide)-3,4-dihydroxychalcone] | 92.4 µM | 101 ± 2.4 µM | – | – | – | – | – |
| O=C(/C=C/c1ccc(O)c(O)c1)c1ccc(NS(=O)(=O)c2ccc(F)cc2)cc1 [Compound 5f, 4′-(4-Fluorobenzenesulfonamide)-3,4-dihydroxychalcone] | 10.8 µM | 8.95 ± 1 µM | – | – | – | – | – |
| Cc1ccc(S(=O)(=O)Nc2ccc(C(=O)/C=C/c3ccc(O)cc3O)cc2)cc1 [Compound 6, 4'-(4-Toluenesulfonamide)-2,4-dihydroxychalcone] | 1.89 µM | 3.6 ± 0.3 µM | – | – | – | – | – |
| O=c1c(O)c(-c2ccc(O)cc2O)oc2cc(O)cc(O)c12 [Morin, reference compound] | – | – | – | – | – | – | IC50 (BACE1 [1]; BACE1): 12.3 µM |
